Measurements published in ChEMBL document CHEMBL1201862, “PubChem BioAssay data set” (2004).
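Test compounds were applied to cells in 96-well plates for 48 hours at 5 doses. At the GI50, growth is halved.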 Active and inactive are the calls of the source. Rule as the data show it: active = GI50 up to about 1.1 µM and inactive = higher.

Legend:
Assay in all cases: NCI anticancer screen, dose series, 48 h
NCI-H226 = system: NCI-H226
SW-620 = system: SW-620
TK-10 = system: TK-10
Malme-3M = system: Malme-3M
HCT-116 = system: HCT-116
OVCAR-8 = system: OVCAR-8
SK-MEL-2 = system: SK-MEL-2
IGROV-1 = system: IGROV-1
RXF 393 = system: RXF 393
HCT-15 = system: HCT-15
CAKI-1 = system: CAKI-1
786-0 = system: 786-0
SF-268 = system: SF-268
SF-539 = system: SF-539
NCI-H460 = system: NCI-H460
PC-3 = system: PC-3
BT-549 = system: BT-549
MDA-MB-435 = system: MDA-MB-435
Hs-578T = system: Hs-578T
T47D = system: T47D

Structure (SMILES) | GI50 (NCI-H226) | GI50 (SW-620) | GI50 (TK-10) | GI50 (Malme-3M) | GI50 (HCT-116) | GI50 (OVCAR-8) | GI50 (SK-MEL-2) | GI50 (IGROV-1) | GI50 (RXF 393) | GI50 (HCT-15) [µM] | GI50 (CAKI-1) | GI50 (786-0) | GI50 (SF-268) | GI50 (SF-539) | GI50 (NCI-H460) | GI50 (PC-3) | GI50 (BT-549) | GI50 (MDA-MB-435) | GI50 (Hs-578T) | GI50 (T47D)
CC1=C(c2cc(C(=O)Nc3cc(C)ccc3C)nc(N)n2)Sc2ccccc2N1 | > 100 µM (inactive) | > 100 µM (inactive) | > 100 µM (inactive) | > 100 µM (inactive) | > 100 µM (inactive) | > 100 µM (inactive) | > 100 µM (inactive) | > 100 µM (inactive) | > 100 µM (inactive) | > 100 | > 100 µM (inactive) | > 100 µM (inactive) | > 100 µM (inactive) | > 100 µM (inactive) | > 100 µM (inactive) |  |  |  |  | 
Cc1ccc([N+](=O)[O-])cc1NC(=O)/C(=N/NC(=S)NN)C1SC(=S)NC1=O (configuration not stated) | > 100 µM (inactive) | > 100 µM (inactive) | > 100 µM (inactive) | > 100 µM (inactive) | > 100 µM (inactive) | > 100 µM (inactive) | > 100 µM (inactive) | > 100 µM (inactive) | > 100 µM (inactive) | > 100 | > 100 µM (inactive) | > 100 µM (inactive) | > 100 µM (inactive) | > 100 µM (inactive) | > 100 µM (inactive) |  |  |  |  | 
CC[N+](C)(CC)CCNC(=O)C(O)(c1ccccc1)c1ccccc1 | > 100 µM (inactive) | > 100 µM (inactive) | > 100 µM (inactive) | > 100 µM (inactive) | > 100 µM (inactive) | > 100 µM (inactive) |  | > 100 µM (inactive) | > 100 µM (inactive) | > 100 | > 100 µM (inactive) | > 100 µM (inactive) | > 100 µM (inactive) | > 100 µM (inactive) | > 100 µM (inactive) | > 100 µM (inactive) | > 100 µM (inactive) |  |  | 
COC(=O)c1c(OC(=O)c2ccccc2)noc1CC(=O)OC1C=CCCC1 (configuration not stated) | > 100 µM (inactive) | > 100 µM (inactive) | > 100 µM (inactive) | > 100 µM (inactive) | > 100 µM (inactive) | > 100 µM (inactive) | > 100 µM (inactive) | > 100 µM (inactive) | 93.1 µM (inactive) | 86.1 | > 100 µM (inactive) | > 100 µM (inactive) | > 100 µM (inactive) | > 100 µM (inactive) | > 100 µM (inactive) |  |  |  |  | 
O=S1(=O)OCCOS(=O)(=O)C1Cc1nc2ccccc2[nH]1 |  |  | > 100 µM (inactive) | > 100 µM (inactive) | 23 µM (inactive) | 55.6 µM (inactive) | 72.3 µM (inactive) |  |  | 26 | 27 µM (inactive) | 39.7 µM (inactive) |  |  | 28.2 µM (inactive) | 19.6 µM (inactive) | > 10 µM (inactive) | 51.2 µM (inactive) |  | 
CC(=O)Oc1ccc2c(C)cc(=O)oc2c1OC(C)=O | 30.6 µM (inactive) | 30.7 µM (inactive) | 24.2 µM (inactive) | 17.6 µM (inactive) | 32.7 µM (inactive) | 27 µM (inactive) | > 100 µM (inactive) | 22.3 µM (inactive) |  | 21.1 |  | 37.2 µM (inactive) | 25.3 µM (inactive) | > 100 µM (inactive) |  | 34.1 µM (inactive) |  | 63.4 µM (inactive) | 24.2 µM (inactive) | 
COc1cc(/C=C(\C#N)c2ccccn2)cc(Br)c1O | 72.6 µM (inactive) | 18.4 µM (inactive) | > 100 µM (inactive) | 26.4 µM (inactive) | > 100 µM (inactive) | 65.3 µM (inactive) | 32.9 µM (inactive) | 54.7 µM (inactive) | 46.2 µM (inactive) | 21.9 | 48.5 µM (inactive) | 68.7 µM (inactive) | 51.4 µM (inactive) | 31.3 µM (inactive) | 36.3 µM (inactive) | 68.1 µM (inactive) | 34.1 µM (inactive) |  |  | 
NN/C(Cc1ccccc1)=N\NO | > 100 µM (inactive) | > 100 µM (inactive) | > 100 µM (inactive) | > 100 µM (inactive) | 47.2 µM (inactive) |  | > 100 µM (inactive) | > 100 µM (inactive) | > 100 µM (inactive) | 26.8 | > 100 µM (inactive) | > 100 µM (inactive) | > 100 µM (inactive) | > 100 µM (inactive) | > 100 µM (inactive) |  |  |  |  | 
CCn1c2c(c3ccccc31)[C@@H](c1ccc(Cl)cc1)CC1C(=O)N(c3ccccc3)C(=O)C21 (some centres not stated) | 45.6 µM (inactive) | > 100 µM (inactive) | > 100 µM (inactive) | 70.6 µM (inactive) | 37.6 µM (inactive) | > 100 µM (inactive) | 91.8 µM (inactive) | > 100 µM (inactive) | 38 µM (inactive) | > 100 | > 100 µM (inactive) | > 100 µM (inactive) | 77.8 µM (inactive) | 31.8 µM (inactive) | 67.1 µM (inactive) |  |  |  |  | 
O=[N+]([O-])c1ccc(/C=N/n2c(S)nnc2CCc2nnc(S)n2/N=C/c2ccc([N+](=O)[O-])o2)o1 | > 100 µM (inactive) | 16.7 µM (inactive) | 84.1 µM (inactive) |  | 15.3 µM (inactive) | 31.9 µM (inactive) | 18.5 µM (inactive) | 44.3 µM (inactive) | 16.7 µM (inactive) | 15.9 | 20.2 µM (inactive) | 17.1 µM (inactive) | 22.3 µM (inactive) | 41.5 µM (inactive) | 84.5 µM (inactive) | 82.6 µM (inactive) |  | 17.6 µM (inactive) | 25.5 µM (inactive) | 23.1 µM (inactive)
N#Cc1c(-c2ccc(Cl)cc2)c(C#N)c(=O)n(NS(=O)(=O)c2ccccc2)c1S | 30.3 µM (inactive) | 26.2 µM (inactive) | 18.5 µM (inactive) | 25.9 µM (inactive) | 25.5 µM (inactive) | 19.9 µM (inactive) | 47.3 µM (inactive) | 21.6 µM (inactive) | 35.8 µM (inactive) | 21.9 | 26.2 µM (inactive) | 17.2 µM (inactive) |  | 18.3 µM (inactive) | 18.8 µM (inactive) | 19.1 µM (inactive) | 25.9 µM (inactive) | 23.5 µM (inactive) |  | 
CC(C)C(NCc1c(O)ccc2c(-c3ccccc3)cc(=O)oc12)C(=O)O (configuration not stated) | > 100 µM (inactive) | > 100 µM (inactive) | > 100 µM (inactive) | > 100 µM (inactive) | > 100 µM (inactive) | > 100 µM (inactive) | > 100 µM (inactive) | > 100 µM (inactive) | > 100 µM (inactive) | > 100 | > 100 µM (inactive) | > 100 µM (inactive) | > 100 µM (inactive) | > 100 µM (inactive) | > 100 µM (inactive) | > 100 µM (inactive) |  | > 100 µM (inactive) | > 100 µM (inactive) | > 100 µM (inactive)
CCOc1ccccc1/N=C(/NC(=O)CC)SC | > 10 µM (inactive) | > 10 µM (inactive) | > 10 µM (inactive) | 67.1 µM (inactive) | 81.1 µM (inactive) | 57 µM (inactive) | 38.7 µM (inactive) | > 10 µM (inactive) | > 10 µM (inactive) | 52.5 | > 10 µM (inactive) | > 10 µM (inactive) | > 10 µM (inactive) | > 10 µM (inactive) | > 10 µM (inactive) |  |  |  |  | 
CC(=O)OCC(C)C1=C(OC(C)=O)C(=O)C2(C)C/C=C(/C)CC/C=C(\C)CCC(OC(C)=O)C(C)CCC12 (configuration not stated) |  | 19.5 µM (inactive) | 19.6 µM (inactive) |  | 16.9 µM (inactive) | 19.1 µM (inactive) | 15 µM (inactive) | 14.4 µM (inactive) |  | 16.9 |  | 13.7 µM (inactive) | 15.4 µM (inactive) | 22.2 µM (inactive) | 3.55 µM (inactive) | 14.3 µM (inactive) |  | 15.9 µM (inactive) | 25.4 µM (inactive) | 16.1 µM (inactive)
CC[C@@H]1C[C@H]2CC3c4[nH]c5ccc(O)cc5c4CCN(C2)C31 | > 100 µM (inactive) | > 100 µM (inactive) | > 100 µM (inactive) | > 100 µM (inactive) | > 100 µM (inactive) | > 100 µM (inactive) | > 100 µM (inactive) | > 100 µM (inactive) | 72.3 µM (inactive) | > 100 | > 100 µM (inactive) | > 100 µM (inactive) | > 100 µM (inactive) | > 100 µM (inactive) | > 100 µM (inactive) |  |  |  |  | 
O=c1/c(=C/c2cccc3ccccc23)sc2nc3ccccc3n12 | > 100 µM (inactive) | > 100 µM (inactive) | > 100 µM (inactive) | > 100 µM (inactive) | > 100 µM (inactive) | > 100 µM (inactive) | > 100 µM (inactive) | > 100 µM (inactive) | > 100 µM (inactive) | > 100 | > 100 µM (inactive) | > 100 µM (inactive) | > 100 µM (inactive) | > 100 µM (inactive) | > 100 µM (inactive) |  |  |  |  | 
Clc1ccc(Cl)c(/N=N\c2cc3c4c(c2)CCN4CCC3)c1 | > 10 µM (inactive) | > 10 µM (inactive) | > 10 µM (inactive) | > 10 µM (inactive) | > 10 µM (inactive) | > 10 µM (inactive) | > 10 µM (inactive) | > 10 µM (inactive) | 8.65 µM (inactive) | > 10 | > 10 µM (inactive) | > 10 µM (inactive) | > 10 µM (inactive) | > 10 µM (inactive) | > 10 µM (inactive) | > 10 µM (inactive) |  | > 10 µM (inactive) | > 10 µM (inactive) | > 10 µM (inactive)
